According to US6432958B1, “2-piperazinoalkylaminobenzoazole derivatives: dopamine receptor subtype specific ligands” (Neurogen Corporation, priority 1998, dated 2002):
pKi: −log10 of the molar value.

Target: T1, D2 receptors from human (Homo sapiens, UniProt P14416)
T1 construct: expressed in transfected cells; host or cells: COS cells
T1 sequence (P14416 whole entry): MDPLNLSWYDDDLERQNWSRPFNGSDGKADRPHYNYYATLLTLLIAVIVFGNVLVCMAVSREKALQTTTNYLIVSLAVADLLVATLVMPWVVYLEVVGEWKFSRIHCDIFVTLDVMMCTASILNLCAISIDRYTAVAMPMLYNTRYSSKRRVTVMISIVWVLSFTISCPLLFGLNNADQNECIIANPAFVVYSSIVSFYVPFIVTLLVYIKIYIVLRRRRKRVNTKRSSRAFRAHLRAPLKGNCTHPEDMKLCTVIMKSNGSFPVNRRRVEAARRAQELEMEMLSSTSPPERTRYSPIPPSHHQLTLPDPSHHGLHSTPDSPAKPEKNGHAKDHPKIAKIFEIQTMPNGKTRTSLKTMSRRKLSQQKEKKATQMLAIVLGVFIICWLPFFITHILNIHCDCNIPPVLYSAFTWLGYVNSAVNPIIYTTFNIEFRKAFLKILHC
Assay: D2 receptor binding assay (3H-YM 09151-2 displacement)
Conditions: COS cells containing recombinantly produced human D2 receptors; 0.5 nM 3H-YM 09151-2
Protocol: (§1) Assays for D2, D3 and D4 Receptor Binding Activity
(§2) Pellets of COS cells containing recombinantly produced D2 or D4 receptors from human are used for the assays. The sample is homogenized in 100 volumes (w/vol) of 0.05 M Tris HCl buffer at 4° C. and pH 7.4. The sample is then centrifuged at 30,000×g and resuspended and rehomogenized. The sample is then centrifuged again at 30,000×g and the final tissue sample is frozen until use. The tissue is resuspended 1:20 (wt/vol) in 0.05 M Tris HCl buffer containing 100 mM NaCl.
(§3) Incubations are carried out a […] and contain 0.4 ml of tissue sample, 0.5 nM ^3H-YM 09151-2 (Nemonapride, cis-5-Chloro-2-methoxy-4-(methylamino)-N-(2-methyl-2-(phenylmethyl)-3-pyrrolidinyl)benzamide) and the compound of interest in a total incubation of 1.0 ml. Nonspecific binding is defined as that binding found in the presence of […] spiperone; without further additions, nonspecific binding is less than 20% of total binding.
With `Br.Cn1c(NCCN2CCN(c3cccc(C(F)(F)F)c3)CC2)nc2ccccc21` [Compound 1, 1-(3-Trifluoromethylphenyl)-4-(2-[1-methylbenzimidazol-2-yl]aminoethyl)piperazine hydrobromide] the pKi was less than 5.00. Compound `Cl.c1ccc(N2CCN(CCNc3nc4ccccc4o3)CC2)nc1` [Compound 3, 1-(Pyridin-2-yl)-4-(2-[benzoxazol-2-yl]aminoethyl)piperazine hydrochloride] has a pKi of less than 5.00. `Fc1cnc(N2CCN(CCCCNc3nc4ccccc4s3)CC2)nc1` [Compound 6] gave a pKi of 5.79. Work on `COc1ccccc1N1CCN(CCNc2nc3ccc(F)cc3s2)CC1` [Compound 2, 1-(2-Methoxyphenyl)-4-(2-[6-fluorobenzothiazol-2-ylamino]ethyl)piperazine difumarate] yielded a pKi of 6.76.

Tested on: not given
Assay: not given
Conditions: not given
Work on `Cl.Cl.Clc1ccc(N2CCN(CCNc3nc4ccccc4s3)CC2)cc1` yielded a melting point of 230 to 232 °C. In the case of `Br.Cc1cnc(N2CCN(CCNc3nc4ccc(F)cc4s3)CC2)nc1`, the melting point was 240 to 250 °C. In the case of `Cc1cnc(N2CCN(CCNc3nc4ccccc4s3)CC2)nc1.O=C(O)/C=C/C(=O)O.O=C(O)/C=C/C(=O)O`, the melting point was 167 to 170 °C. Work on `Br.COc1ccccc1N1CCN(CCNc2nc3c(Cl)cccc3s2)CC1` yielded a melting point of 194 to 195 °C. In the case of `Br.Fc1ccc2nc(NCCN3CCN(c4cccc(C(F)(F)F)c4)CC3)sc2c1`, the melting point was 259 to 261 °C. `Br.CCOc1ccc2nc(NCCN3CCN(c4ccccc4OC)CC3)sc2c1` gave a melting point of 227 to 228 °C. With `Br.Cn1c(NCCN2CCN(c3cccc(C(F)(F)F)c3)CC2)nc2ccccc21` [Compound 1, 1-(3-Trifluoromethylphenyl)-4-(2-[1-methylbenzimidazol-2-yl]aminoethyl)piperazine hydrobromide] the melting point was 283 °C (dec.). Compound `Fc1ccc2nc(NCCN3CCN(c4ncccn4)CC3)sc2c1.O=C(O)/C=C/C(=O)O.O=C(O)/C=C/C(=O)O` has a melting point of 179 to 180 °C. Compound `Br.COc1ccccc1N1CCN(CCNc2nc3ccccc3n2C)CC1` has a melting point of 273 to 274 °C. `Br.COc1ccccc1N1CCN(CCNc2nc3c(OC)cccc3s2)CC1` gave a melting point of 171 to 173 °C. `COc1ccccc1N1CCN(CCNc2nc3ccccc3s2)CC1.O=C(O)/C=C/C(=O)O.O=C(O)/C=C/C(=O)O` showed a melting point of 101 to 103 °C. With `Br.CCn1c(NCCN2CCN(c3ccccc3OC)CC2)nc2ccccc21` the melting point was 109 to 110 °C. In the case of `Br.Fc1ccc2nc(NCCN3CCN(c4ccccn4)CC3)sc2c1`, the melting point was 259 to 260 °C. `Cl.c1ccc(N2CCN(CCNc3nc4ccccc4o3)CC2)nc1` [Compound 3, 1-(Pyridin-2-yl)-4-(2-[benzoxazol-2-yl]aminoethyl)piperazine hydrochloride] showed a melting point of 255 to 265 °C. For `Br.CC(C)Oc1ccccc1N1CCN(CCNc2nc3ccc(F)cc3s2)CC1`, the melting point was 216 to 217 °C. With `Br.CC(C)Oc1ccccc1N1CCN(CCNc2nc3ccccc3n2C)CC1` the melting point was 285 °C (dec.). Work on `Br.c1ccc(N2CCN(CCNc3nc4ccccc4[nH]3)CC2)nc1` yielded a melting point of 290 to 291 °C. `Fc1ccc2nc(NCCN3CCN(Cc4ccccc4)CC3)sc2c1.O=C(O)/C=C/C(=O)O.O=C(O)/C=C/C(=O)O` showed a melting point of 228 to 229 °C. Compound `Cl.Cl.Fc1ccc(N2CCN(CCNc3nc4ccccc4s3)CC2)cc1` has a melting point of 229 to 231 °C. Work on `Br.Fc1ccc2nc(NCCN3CCN(Cc4ccc(Cl)cc4)CC3)sc2c1` yielded a melting point of 238 to 240 °C. Work on `Br.Fc1ccc2nc(NCCN3CCN(c4ccccc4)CC3)sc2c1` yielded a melting point of 268 to 270 °C. `Br.COc1ccccc1N1CCN(CCNc2nc3ccc(S(C)(=O)=O)cc3s2)CC1` gave a melting point of 190 to 196 °C. With `Br.CCOc1ccccc1N1CCN(CCNc2nc3ccc(F)cc3s2)CC1` the melting point was 235 to 237 °C. Compound `Br.Fc1ccc(N2CCN(CCNc3nc4ccc(F)cc4s3)CC2)cc1` has a melting point of 270 to 271 °C. Work on `Br.Fc1cnc(N2CCN(CCNc3nc4ccc(F)cc4s3)CC2)nc1` yielded a melting point of 279 to 281 °C. Compound `O=C(O)/C=C/C(=O)O.O=C(O)/C=C/C(=O)O.c1ccc(N2CCN(CCNc3nc4ccccc4s3)CC2)nc1` has a melting point of 159 to 160 °C. In the case of `O=C(O)/C=C/C(=O)O.O=C(O)/C=C/C(=O)O.c1cnc(N2CCN(CCNc3nc4ccccc4s3)CC2)nc1`, the melting point was 161 to 163 °C. For `Cl.c1cnc(N2CCN(CCNc3nc4ccccc4o3)CC2)nc1`, the melting point was 197 to 202 °C. `Br.COc1ccccc1N1CCN(CCNc2nc3ccccc3[nH]2)CC1` gave a melting point of 215 to 216 °C. In the case of `O=C(O)/C=C/C(=O)O.O=C(O)/C=C/C(=O)O.c1ccc(N2CCN(CCNc3nc4ccccc4s3)CC2)cc1`, the melting point was 131 to 132 °C. In the case of `Br.COc1ccccc1N1CCN(CCNc2nc3c(C)cccc3s2)CC1`, the melting point was 226 to 227 °C. Compound `Br.COc1ccccc1N1CCN(CCCNc2nc3ccccc3s2)CC1` has a melting point of 195 to 197 °C. In the case of `Br.CCn1c(NCCN2CCN(c3ccccc3)CC2)nc2ccccc21`, the melting point was 270 °C (dec.). Compound `Fc1cnc(N2CCN(CCNc3nc4ccccc4s3)CC2)nc1.O=C(O)/C=C/C(=O)O.O=C(O)/C=C/C(=O)O` has a melting point of 174 to 175 °C. `Br.c1ccc(N2CCN(CCNc3nc4ccccc4[nH]3)CC2)cc1` showed a melting point of 241 to 247 °C.

Target: T2, D4 receptors from human (Homo sapiens, UniProt P21917)
T2 construct: expressed in transfected cells; host or cells: COS cells
T2 sequence (P21917 1-419): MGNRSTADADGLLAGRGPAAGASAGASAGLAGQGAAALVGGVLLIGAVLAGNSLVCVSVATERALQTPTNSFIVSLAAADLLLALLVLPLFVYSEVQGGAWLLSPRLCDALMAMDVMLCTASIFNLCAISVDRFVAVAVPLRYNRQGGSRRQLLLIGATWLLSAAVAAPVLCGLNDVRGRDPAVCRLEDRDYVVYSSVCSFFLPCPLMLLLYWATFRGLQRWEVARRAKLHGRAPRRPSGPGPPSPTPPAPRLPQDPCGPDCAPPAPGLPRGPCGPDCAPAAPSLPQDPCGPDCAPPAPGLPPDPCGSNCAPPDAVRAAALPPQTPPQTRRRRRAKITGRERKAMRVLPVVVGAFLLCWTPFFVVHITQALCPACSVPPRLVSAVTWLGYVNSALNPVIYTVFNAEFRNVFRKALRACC
Assay: D4 receptor binding assay (3H-YM 09151-2 displacement)
Conditions: COS cells containing recombinantly produced human D4 receptors; 0.5 nM 3H-YM 09151-2
Protocol: as §1, §2, §3
`Br.Cn1c(NCCN2CCN(c3cccc(C(F)(F)F)c3)CC2)nc2ccccc21` [Compound 1, 1-(3-Trifluoromethylphenyl)-4-(2-[1-methylbenzimidazol-2-yl]aminoethyl)piperazine hydrobromide] showed a pKi of 8.52. `Cl.c1ccc(N2CCN(CCNc3nc4ccccc4o3)CC2)nc1` [Compound 3, 1-(Pyridin-2-yl)-4-(2-[benzoxazol-2-yl]aminoethyl)piperazine hydrochloride] gave a pKi of 7.96. Compound `Fc1cnc(N2CCN(CCCCNc3nc4ccccc4s3)CC2)nc1` [Compound 6] has a pKi of 8.22. `COc1ccccc1N1CCN(CCNc2nc3ccc(F)cc3s2)CC1` [Compound 2, 1-(2-Methoxyphenyl)-4-(2-[6-fluorobenzothiazol-2-ylamino]ethyl)piperazine difumarate] showed a pKi of 9.00.
